The text below walks through data of ChEMBL document CHEMBL1134487, “Design, synthesis, and biological evaluation of analogues of the antitumor agent, 2-(4-[(7-chloro-2-quinoxalinyl)oxy]phenoxy)propionic acid (XK469)” (2001).

Calls of active or inactive are those of the source. The calls are words filed in the database; no cut-off is given here.

Assay [1] concerns Mus musculus. The assay is described as follows: In vivo activity tested against C3H mice bearing colon adenocarcinoma -38(colon-38) tumor measured as log Kill value was based on tumors that grew at 1433 mg/kg (po). Format: functional, organism-based. Further details: dose 1433 mg/kg.
Assay [2] concerns Mus musculus. The assay is described as follows: In vivo activity tested against C3H mice bearing colon adenocarcinoma -38(colon-38) tumor measured as body weight loss at 1433 mg/kg (po). Format: functional.
The subject of assay [3] is Mus musculus. Description: In vivo activity tested against C3H mice bearing colon adenocarcinoma -38(colon-38) tumor measured as % treated/control calculated at 1433 mg/kg (po). The class given is functional.
Assay [4] has as its system Mus musculus. Description: In vivo activity tested against C3H mice bearing colon adenocarcinoma -38(colon-38) tumor measured as activity rating at 1433 mg/kg (po). The class given is functional.
Assay [5] relates to Mus musculus. Description: In vivo activity tested against C3H mice bearing colon adenocarcinoma -38(colon-38) tumor measured as activity rating at 1590 mg/kg (po). Format: functional.
Assay [6] concerns Mus musculus. The assay is described as follows: In vivo activity tested against C3H mice bearing colon adenocarcinoma -38(colon-38) tumor measured as % treated/control calculated at 1590 mg/kg (po). Format: functional.
Assay [7] deals with Mus musculus. Description: In vivo activity tested against C3H mice bearing colon adenocarcinoma -38(colon-38) tumor measured as body weight loss at 1590 mg/kg (po). The class given is functional.
In assay [8] the test system is Mus musculus. Description: In vivo activity tested against C3H mice bearing colon adenocarcinoma -38(colon-38) tumor measured as log Kill value was based on tumors that grew at 1590 mg/kg (po); None. The class given is functional, organism-based. Further details: dose 1590 mg/kg.
The subject of assay [9] is Mus musculus. Description: In vivo activity tested against C3H mice bearing panc-03 murine tumor measured as log Kill value was based on tumors that grew at 1320 mg/kg (po). Format: functional, organism-based. Further details: dose 1320 mg/kg.
Assay [10] deals with Mus musculus. Description: In vivo activity tested against C3H mice bearing panc-03 murine tumor measured as body weight loss at 1320 mg/kg (po). Format: functional.
Assay [11] relates to Mus musculus. The assay is described as follows: In vivo activity tested against C3H mice bearing panc-03 murine tumor measured as % treated/control calculated at 1320 mg/kg (po). The class given is functional.
The test system of assay [12] is Mus musculus. The assay is described as follows: In vivo activity tested against C3H mice bearing colon adenocarcinoma -38(colon-38) tumor measured as % treated/control calculated at 2686 mg/kg (po). Format: functional.
Assay [13] has as its system Mus musculus. Description: In vivo activity tested against C3H mice bearing colon adenocarcinoma -38(colon-38) tumor measured as activity rating at 2686 mg/kg (po). Format: functional.
The test system of assay [14] is Mus musculus. Description: In vivo activity tested against C3H mice bearing colon adenocarcinoma -38(colon-38) tumor measured as body weight loss at 2686 mg/kg (po). The class given is functional.
Assay [15] has as its system Mus musculus. The assay is described as follows: In vivo activity tested against C3H mice bearing colon adenocarcinoma -38(colon-38) tumor measured as log Kill value was based on tumors that grew at 2686 mg/kg (po). Format: functional, organism-based. Set-up: dose 2686 mg/kg.
For assay [16], the system named is Mus musculus. The assay is described as follows: In vivo activity tested against C3H mice bearing Mam 17/Adr murine tumor at a dose of 330 mg/kg, measured as activity rating. Format: functional.
For assay [17], the system named is Mus musculus. The assay is described as follows: In vivo activity tested against C3H mice bearing panc-03 murine tumor at a dose of 330mg/kg, measured as % treated/control. The class given is functional.
The test system of assay [18] is Mus musculus. Description: In vivo activity tested against C3H mice bearing panc-03 murine tumor at a dose of 330mg/kg, measured as activity rating. Format: functional.
The subject of assay [19] is Mus musculus. Description: In vivo activity tested against C3H mice bearing colon adenocarcinoma -38(colon-38) tumor measured as activity rating at 2770 mg/kg (po). Format: functional.
Assay [20] concerns Mus musculus. Description: In vivo activity tested against C3H mice bearing colon adenocarcinoma -38(colon-38) tumor measured as log Kill value was based on tumors that grew at 2770 mg/kg (po); None. The class given is functional, organism-based. Set-up: dose 2770 mg/kg.
Assay [21] relates to Mus musculus. Description: In vivo activity tested against C3H mice bearing colon adenocarcinoma -38(colon-38) tumor measured as body weight loss at 2770 mg/kg (po). Format: functional.
Assay [22] relates to Mus musculus. Description: In vivo activity tested against C3H mice bearing colon adenocarcinoma -38(colon-38) tumor measured as % treated/control calculated at 2770 mg/kg (po). Format: functional.
The subject of assay [23] is Mus musculus. Description: In vivo activity tested against C3H mice bearing panc-03 murine tumor measured as % treated/control calculated at 530 mg/kg (po). Format: functional.
Assay [24] deals with Mus musculus. Description: In vivo activity tested against C3H mice bearing panc-03 murine tumor measured as log Kill value was based on tumors that grew at 530 mg/kg (po). Format: functional, organism-based. Further details: dose 530 mg/kg.
Assay [25] has as its system Mus musculus. The assay is described as follows: In vivo activity tested against C3H mice bearing panc-03 murine tumor measured as body weight loss at 530 mg/kg (po). Format: functional.
Assay [26] relates to Mus musculus. The assay is described as follows: In vivo activity tested against C3H mice bearing panc-03 murine tumor measured as % treated/control calculated at 287 mg/kg (po). The class given is functional.
The subject of assay [27] is Mus musculus. Description: In vivo activity tested against C3H mice bearing panc-03 murine tumor measured as body weight loss at 351 mg/kg (po). Format: functional.
The test system of assay [28] is Mus musculus. Description: In vivo activity tested against C3H mice bearing panc-03 murine tumor measured as log Kill value was based on tumors that grew at 351 mg/kg (po). Format: functional, organism-based. Further details: dose 351 mg/kg.
Assay [29] relates to Mus musculus. The assay is described as follows: In vivo activity tested against C3H mice bearing panc-03 murine tumor measured as % treated/control calculated at 351 mg/kg (po). The class given is functional.
In assay [30] the test system is Mus musculus. Description: In vivo activity tested against C3H mice bearing panc-03 murine tumor measured as body weight loss at 287 mg/kg (po). Format: functional.
Assay [31] has as its system Mus musculus. The assay is described as follows: In vivo activity tested against C3H mice bearing panc-03 murine tumor measured as log Kill value was based on tumors that grew at 287 mg/kg (po). Set-up: dose 287 mg/kg. Format: functional, organism-based.

In the assay with Mus musculus [1], `COC(=O)C(C)Oc1ccc(Oc2cnc3ccc(F)cc3n2)cc1` (stereo unspecified) gave a Log kill of 0.8. The Body weight loss in the assay on Mus musculus [2] is listed as 1%. The T/C in the assay on Mus musculus [3] is 34%. The Activity rating in the assay with Mus musculus [4] turned out to be 1.2.

For the compound `CC(Oc1ccc(Oc2cnc3cc(Cl)ccc3n2)cc1)C(=O)O` (stereo unspecified) [QUIZALOFOP], the Activity rating in the assay on Mus musculus [5] is given as below 0.7. Further, the T/C with Mus musculus [6] was above 100%. In the assay on Mus musculus [7], the Body weight loss is -4%. For the same compound, the Log kill result in the assay on Mus musculus [8] was “inactive”.

In turn, `CC(Oc1ccc(Oc2cnc3ccc(Cl)cc3n2)cc1)C(N)=O` (stereo unspecified) registered a Log kill with Mus musculus [9] of 1.9. Further, in the assay on Mus musculus [10], the Body weight loss is recorded as -3.6%. Also, in the assay on Mus musculus [11], the T/C was 7.3.

On to `CCOC(=O)C(C)Oc1ccc(Oc2cnc3cc(Cl)ccc3n2)cc1` (stereo unspecified) [QUIZALOFOP ETHYL ESTER], for which the T/C in the assay with Mus musculus [12] is listed as 61%. In addition, the Activity rating in the assay with Mus musculus [13] is below 0.7. In addition, the Body weight loss in the assay with Mus musculus [14] stood at 0%. Also, the Log kill with Mus musculus [15] is 0.42.

With `CC(Sc1ccc(Oc2cnc3ccc(Cl)cc3n2)cc1)C(=O)O` (stereo unspecified), the Activity rating in the assay on Mus musculus [16] and in the assay on Mus musculus [18] was above 2.8 each time. In the assay on Mus musculus [17], this compound registered a T/C of 100%.

`COC(=O)C(C)Oc1ccc(Oc2cnc3cc(Cl)ccc3n2)cc1` (stereo unspecified) had an Activity rating with Mus musculus [19] below 0.7. In addition, the Log kill entry with Mus musculus [20] is “inactive”. Also, the Body weight loss in the assay with Mus musculus [21] came to 0%. Further, in the assay on Mus musculus [22], the T/C was above 100%.

Regarding `CC(Oc1ccc(Oc2cnc3ccc(I)cc3n2)cc1)C(=O)O` (stereo unspecified), the T/C in the assay with Mus musculus [23] is given as 15%. For the same compound, the Log kill in the assay with Mus musculus [24] came to 1.8. In the assay on Mus musculus [25], the Body weight loss was found to be 0%.

With `CC(Oc1ccc(Oc2cnc3cccc(Cl)c3n2)cc1)C(=O)O` (stereo unspecified), the T/C is reported as 69% with Mus musculus [26] and 74% with Mus musculus [29]. Moreover, the results for the Body weight loss with Mus musculus [27] and in the assay on Mus musculus [30] were -4% and -3.9%, respectively. The Log kill amounted to 0 in the assay on Mus musculus [28] and 0.1 in the assay on Mus musculus [31].
